Data reported in patent publication US8969310B2, “Potentiation of anticancer agents” (Angiochem Inc., priority 2005, dated 2015).
pIC50: −log10 of the molar value. Where two headings read alike, the source gives them in different places. One block for each compound: values may come before it.

How the values were obtained:
[1] = target: T1, LRP (Mus musculus, UniProt Q91ZX7); assay: [125I]-RAP uptake in MEF-1 (LRP+) and PEA-13 (LRP-) fibroblasts; format: cell-based
T1 construct: endogenous in cells; host or cells: MEF-1 fibroblasts (LRP-positive), with PEA-13 fibroblasts (LRP-negative) as subtraction control
T1 sequence (Q91ZX7 20-4545): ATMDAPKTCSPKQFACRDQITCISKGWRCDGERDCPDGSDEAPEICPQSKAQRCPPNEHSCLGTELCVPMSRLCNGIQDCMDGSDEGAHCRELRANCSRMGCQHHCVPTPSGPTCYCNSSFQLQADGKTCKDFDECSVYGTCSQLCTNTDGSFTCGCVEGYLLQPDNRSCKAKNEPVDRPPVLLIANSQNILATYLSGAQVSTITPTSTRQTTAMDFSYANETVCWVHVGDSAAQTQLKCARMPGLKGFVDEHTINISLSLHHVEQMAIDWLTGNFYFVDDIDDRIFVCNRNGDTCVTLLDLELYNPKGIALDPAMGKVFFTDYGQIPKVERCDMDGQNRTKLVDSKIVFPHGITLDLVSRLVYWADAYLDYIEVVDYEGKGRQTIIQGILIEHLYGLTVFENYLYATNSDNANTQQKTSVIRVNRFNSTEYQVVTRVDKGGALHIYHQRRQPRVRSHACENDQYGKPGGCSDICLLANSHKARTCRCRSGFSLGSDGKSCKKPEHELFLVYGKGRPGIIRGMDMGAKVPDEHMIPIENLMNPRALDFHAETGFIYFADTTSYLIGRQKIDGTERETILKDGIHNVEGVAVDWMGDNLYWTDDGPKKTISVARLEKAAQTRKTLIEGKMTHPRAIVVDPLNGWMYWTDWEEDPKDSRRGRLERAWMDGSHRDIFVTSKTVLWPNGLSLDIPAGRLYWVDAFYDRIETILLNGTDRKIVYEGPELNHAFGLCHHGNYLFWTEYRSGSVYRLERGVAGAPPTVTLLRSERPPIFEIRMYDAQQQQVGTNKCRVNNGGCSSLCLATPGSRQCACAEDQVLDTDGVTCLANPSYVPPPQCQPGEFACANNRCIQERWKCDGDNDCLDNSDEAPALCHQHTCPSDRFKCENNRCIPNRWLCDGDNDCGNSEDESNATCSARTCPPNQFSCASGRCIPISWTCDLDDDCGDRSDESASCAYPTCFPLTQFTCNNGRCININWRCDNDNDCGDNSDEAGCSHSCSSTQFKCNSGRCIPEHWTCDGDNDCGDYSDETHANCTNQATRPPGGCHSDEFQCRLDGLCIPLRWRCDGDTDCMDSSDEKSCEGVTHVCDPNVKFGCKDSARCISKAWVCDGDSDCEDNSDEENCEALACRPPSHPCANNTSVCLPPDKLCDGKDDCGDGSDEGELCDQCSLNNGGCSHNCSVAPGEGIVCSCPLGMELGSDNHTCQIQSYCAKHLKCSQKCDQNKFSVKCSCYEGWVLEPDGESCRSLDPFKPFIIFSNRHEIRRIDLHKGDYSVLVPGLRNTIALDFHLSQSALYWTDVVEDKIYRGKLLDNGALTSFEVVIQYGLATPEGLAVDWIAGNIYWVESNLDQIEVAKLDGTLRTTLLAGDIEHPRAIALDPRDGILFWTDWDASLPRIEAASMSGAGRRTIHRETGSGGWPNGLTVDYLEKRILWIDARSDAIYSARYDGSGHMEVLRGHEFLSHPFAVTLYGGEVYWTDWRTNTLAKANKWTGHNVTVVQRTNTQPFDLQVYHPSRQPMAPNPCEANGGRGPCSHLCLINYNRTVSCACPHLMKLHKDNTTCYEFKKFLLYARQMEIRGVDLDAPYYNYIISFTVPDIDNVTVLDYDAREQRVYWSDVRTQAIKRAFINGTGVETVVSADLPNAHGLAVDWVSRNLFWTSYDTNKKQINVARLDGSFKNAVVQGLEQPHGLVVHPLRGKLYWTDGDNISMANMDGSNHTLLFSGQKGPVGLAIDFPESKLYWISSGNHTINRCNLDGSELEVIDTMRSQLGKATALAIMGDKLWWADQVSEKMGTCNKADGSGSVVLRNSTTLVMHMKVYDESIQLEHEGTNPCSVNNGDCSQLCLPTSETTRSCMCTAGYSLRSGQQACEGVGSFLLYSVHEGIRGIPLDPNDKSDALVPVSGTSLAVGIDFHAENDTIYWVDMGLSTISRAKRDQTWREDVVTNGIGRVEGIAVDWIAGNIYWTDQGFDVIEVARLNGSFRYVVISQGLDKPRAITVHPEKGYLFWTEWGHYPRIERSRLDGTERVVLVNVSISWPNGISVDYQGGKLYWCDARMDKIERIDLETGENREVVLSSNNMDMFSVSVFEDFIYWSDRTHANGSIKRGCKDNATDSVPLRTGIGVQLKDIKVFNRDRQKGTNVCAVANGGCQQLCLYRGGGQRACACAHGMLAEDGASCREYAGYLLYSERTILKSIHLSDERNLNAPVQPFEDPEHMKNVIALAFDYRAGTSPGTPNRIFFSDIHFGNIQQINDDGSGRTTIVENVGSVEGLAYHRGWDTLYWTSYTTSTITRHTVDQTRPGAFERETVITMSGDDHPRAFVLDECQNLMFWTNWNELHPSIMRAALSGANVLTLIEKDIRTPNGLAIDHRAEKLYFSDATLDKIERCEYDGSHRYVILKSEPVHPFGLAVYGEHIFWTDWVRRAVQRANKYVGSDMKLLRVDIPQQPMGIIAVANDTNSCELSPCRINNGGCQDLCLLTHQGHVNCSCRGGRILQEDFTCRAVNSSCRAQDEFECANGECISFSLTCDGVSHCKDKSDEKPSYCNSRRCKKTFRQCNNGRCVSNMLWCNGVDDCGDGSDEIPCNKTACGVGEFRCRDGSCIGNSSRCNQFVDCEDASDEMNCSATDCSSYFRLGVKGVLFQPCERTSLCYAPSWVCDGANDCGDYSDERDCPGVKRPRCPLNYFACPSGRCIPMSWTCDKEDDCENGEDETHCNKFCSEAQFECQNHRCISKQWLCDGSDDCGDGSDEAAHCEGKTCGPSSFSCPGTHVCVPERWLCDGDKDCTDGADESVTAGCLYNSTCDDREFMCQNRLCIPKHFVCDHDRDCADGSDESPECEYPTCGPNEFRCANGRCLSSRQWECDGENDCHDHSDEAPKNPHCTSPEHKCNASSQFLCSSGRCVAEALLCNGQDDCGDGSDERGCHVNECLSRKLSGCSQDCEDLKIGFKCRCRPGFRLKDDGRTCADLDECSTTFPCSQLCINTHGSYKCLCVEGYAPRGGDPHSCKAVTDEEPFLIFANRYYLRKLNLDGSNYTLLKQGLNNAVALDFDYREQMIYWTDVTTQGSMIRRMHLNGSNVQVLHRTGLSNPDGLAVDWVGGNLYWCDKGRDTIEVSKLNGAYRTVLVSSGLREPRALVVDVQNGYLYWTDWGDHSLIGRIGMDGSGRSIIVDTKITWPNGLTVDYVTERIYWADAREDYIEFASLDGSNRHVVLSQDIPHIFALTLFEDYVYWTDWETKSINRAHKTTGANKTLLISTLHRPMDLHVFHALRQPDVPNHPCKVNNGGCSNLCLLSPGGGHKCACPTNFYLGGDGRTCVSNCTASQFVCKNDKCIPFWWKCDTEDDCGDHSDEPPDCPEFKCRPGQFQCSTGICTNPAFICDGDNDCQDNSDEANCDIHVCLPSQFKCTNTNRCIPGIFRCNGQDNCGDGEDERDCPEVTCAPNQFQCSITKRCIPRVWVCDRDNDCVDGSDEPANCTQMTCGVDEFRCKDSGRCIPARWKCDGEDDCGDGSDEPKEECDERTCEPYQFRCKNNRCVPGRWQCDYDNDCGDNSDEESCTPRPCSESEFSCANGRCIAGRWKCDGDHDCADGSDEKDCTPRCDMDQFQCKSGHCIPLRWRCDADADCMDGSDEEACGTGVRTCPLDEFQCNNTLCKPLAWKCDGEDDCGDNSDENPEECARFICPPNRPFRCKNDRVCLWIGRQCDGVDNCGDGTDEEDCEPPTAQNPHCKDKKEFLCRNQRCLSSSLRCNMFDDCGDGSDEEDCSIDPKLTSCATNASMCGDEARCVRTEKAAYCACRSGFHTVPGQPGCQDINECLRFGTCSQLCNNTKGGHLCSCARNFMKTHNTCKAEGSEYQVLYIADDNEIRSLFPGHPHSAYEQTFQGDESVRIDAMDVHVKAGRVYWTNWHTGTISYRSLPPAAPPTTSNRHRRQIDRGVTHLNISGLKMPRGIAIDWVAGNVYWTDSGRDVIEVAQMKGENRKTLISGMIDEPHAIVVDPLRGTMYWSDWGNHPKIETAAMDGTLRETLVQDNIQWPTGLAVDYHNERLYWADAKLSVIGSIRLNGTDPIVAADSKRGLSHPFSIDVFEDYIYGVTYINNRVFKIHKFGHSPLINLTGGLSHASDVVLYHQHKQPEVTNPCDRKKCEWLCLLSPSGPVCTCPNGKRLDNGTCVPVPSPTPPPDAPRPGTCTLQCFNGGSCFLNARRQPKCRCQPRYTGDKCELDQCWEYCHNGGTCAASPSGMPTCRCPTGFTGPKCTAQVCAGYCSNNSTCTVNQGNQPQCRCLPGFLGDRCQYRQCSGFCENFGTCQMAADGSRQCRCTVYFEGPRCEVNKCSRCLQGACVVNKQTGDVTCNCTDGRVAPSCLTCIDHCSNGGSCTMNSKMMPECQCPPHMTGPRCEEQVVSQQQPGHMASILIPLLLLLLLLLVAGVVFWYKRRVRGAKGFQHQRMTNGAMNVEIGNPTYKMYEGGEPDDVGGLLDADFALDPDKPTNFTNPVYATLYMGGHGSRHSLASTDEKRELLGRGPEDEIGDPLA
Protocol: The LRP-dependent accumulation of [^125I]-RAP was calculated by substracted the results for the uptake obtained with PEA-13 cells from the results obtained with MEF-1;

[2] = In situ mouse brain perfusion; settings: 5 min perfusion, [125I]-labelled, FIG. 7
Protocol: (§2) Briefly, the right common carotid of ketamine/xylazine (140/8 mg/kg i.p.) anesthetized mice was exposed and ligated at the level of the bifurcation of the common carotid, rostral to the occipital artery. The common carotid was then catheterized rostrally with polyethylene tubing filled with heparin (25 U/ml) and mounted on a 26-gauge needle. […] Prior to the perfusion, the contralateral blood flow contribution was eliminated by severing heart ventricles. […] Mice were then decapitated to terminate perfusion and the right hemisphere was isolated on ice before being subjected to capillary depletion.
(§3) After perfusion, the brain was further perfused for 60 sec with Ringer solution to wash the excess of radiolabeled molecules and then the right hemisphere was isolated on ice before being subjected to capillary depletion.

[3] = mouse, in vivo
Protocol: as §2, §3

[4] = comparator products; data based on rat GLP toxicity programs; cited from earlier work
[5] = tested on: U-87 glioblastoma cells; assay: Cell proliferation assay ([3H]-thymidine incorporation), U-87; format: cell-based, human
Protocol: (§1) For the in vitro cell proliferation assay, between 2.5 and 5×10^4 of U87 or A549 cells were seeded in a 24 well tissue culture microplate in a final volume of 1 ml of medium with 10% serum and incubated for 24 hours at 37° C. and 5% CO2. The medium was then replaced with serum-free medium and incubated overnight. The next morning the drug was freshly dissolved in dimethyl sulfoxide (DMSO) and the medium was replaced with complete medium containing the drug at different concentrations in triplicates. The final concentration of DMSO was 0.1%. The control used is a microplate well with cells and without drug. The cells were incubated for 48 to 72 hrs at 37° C. and 5% CO2. After the incubation, the medium was changed and replaced with 1 ml of complete medium containing [^3H]-thymidine (1 μCi/assay). The plate was incubated at 37° C. and 5% CO2 for 4 hrs. The medium was removed and the cells washed with PBS heated at 37° C. The cells were fixed with a mix of ethanol:acetic acid (3;1), then washed with water and precipitated 3 times with 10% of ice-cold TCA (trichloroacetic acid). Finally 500 μl of PCA (perchloric acid) were added to the wells and the microplates were heated for 30 min at 65° C. and 30 min at 75° C. The contents of each well was then transferred in a scintillation vial with 10 ml of scintillation cocktail and the activity was measured in CPM (count per minute) on a liquid scintillation counter Tri-Carb from Packard.
The anti-proliferatice activity of the conjugate against cancer cells in vitro was further assessed.

[6] = tested on: BT-474 breast cancer cell line; assay: In vitro cytotoxicity, BT-474; format: cell-based
[7] = tested on: U-118 glioblastoma cells; assay: Cell proliferation assay ([3H]-thymidine incorporation), U-118; format: cell-based; settings: read-out: IC50, effect on cell proliferation
[8] = tested on: Calu-3 lung carcinoma cells; assay: Cell proliferation assay, Calu-3; format: cell-based; settings: Homo sapiens, read-out: IC50, effect on cell proliferation
[9] = tested on: NCI-H460 subcutaneous tumor; assay: Subcutaneous NCI-H460 tumor growth; format: in vivo, mice; settings: i.v.
Protocol: Briefly, mice received a subcutaneous injection of 2.5×10^6 human U87 glioma cells or NCI-H460 cells. […] Treatments were then administered twice a week until animals were sacrificed. Mice were monitored every day for clinical symptoms and weight loss. Tumor volume was estimated with a kaliper and the following equation (tumor volume=π/2×(length (mm)×width^2 (mm)).
In the first subcutaneous tumor growth study, NCI-H460 cells were implanted in mice right flank (FIG. 22A).

[10] = tested on: RBE4 endothelial cells from rat brain; assay: Cell proliferation assay, RBE4; format: cell-based; settings: read-out: IC50, effect on cell proliferation
[11] = Tissue distribution and pharmacokinetics after i.v. bolus (AUC0-4); format: in vivo, mice; settings: equivalent to 5 mg/kg of Taxol
Protocol: The unconjugated anticancer drug and the conjugates were injected intra-veinously (i.v.) in mice as a bolus. Tissues were collected at different times (0.25, 0.5, 1 and 4 hrs) and homogenized. […] Radioactivity associated with the tissues was therefore quantified. The area under the curve (AUC0-4) was estimated using the Prism software and was plotted for the different tissues (FIG. 10).

[12] = tested on: NCI-H460 lung carcinoma cells; assay: Cell proliferation assay ([3H]-thymidine incorporation), NCI-H460; format: cell-based
[13] = tested on: MDA-MB-231 breast cancer cell line; assay: In vitro cytotoxicity, MDA-MB-231; format: cell-based
[14] = target: P-gp (human MDR1) (Homo sapiens, UniProt P08183); assay: Accumulation in MDCK-MDR1 cells with or without cyclosporin A (P-gp substrate test)
Protocol: In order to determine whether the conjugates of the present invention were P-gp substrates or not, MDCK cells were stably transfected with human MDR1 (MDCK-MDR1) and were subsequently incubated with unconjugated-anticancer drug or with the conjugates of the present invention. […] After the incubation, cells were washed and accumulation of radioactivity inside the cells or intracellular fluorescence was quantified. The increased in the accumulation of these drugs is expressed in term of x-fold compared to their respective control measured in the absence of CsA. Thus, the control value for each drug was set to 1-fold.

[15] = tested on: SK-HEP-1 hepatocarcinoma cells; assay: In vitro cytotoxicity, SK-HEP-1; format: cell-based, human
[16] = tested on: MDA-MB-468 breast cancer cell line; assay: In vitro cytotoxicity, MDA-MB-468; format: cell-based
[17] = tested on: NCI-H460 cell-cycle; assay: NCI-H460 cell cycle measured by FACS; format: cell-based; settings: NCI-H460, 24 hrs; Taxol 100 nM, TxlAn2 conjugate 30 nM
[18] = tested on: A549 lung carcinoma cells; assay: Cell proliferation assay ([3H]-thymidine incorporation), A549; format: cell-based; settings: Homo sapiens, read-out: IC50, effect on cell proliferation
Protocol: as §1, with “Finally 500 μl of PCA (perchloric acid) were added to the wells and the microplates were heated for 30 min at 65° C. and 30 min at 75° C.” left out, “Packard. […]” for “Packard.”

[19] = Preliminary comparative toxicity in beagle dogs
[20] = tested on: HCC1954 breast cancer cell line; assay: In vitro cytotoxicity, HCC1954; format: cell-based
[21] = various aprotinin concentrations

Compound: aprotinin
LRP-dependent accumulation of [125I]-RAP (MEF-1 minus PEA-13) ([1]; excess, 25 μM, FIG. 18): affect the LRP-dependent accumulation of [^125I]-RAP | Uptake of [125I]-RAP in LRP-negative cells (PEA-13) [1, 21]: almost unaffected | Uptake of [125I]-RAP in LRP-positive cells (MEF-1) [1, 21]: inhibited the transport of [^125I]-RAP in positive LRP cells in a dose-dependent manner | Initial brain uptake (transport rate) compared with transferrin [2]: highest initial transport rate than transferrin

Accumulation into brain parenchyma compared with vascular marker [14C]-inulin [3]: higher than that of the vascular marker
Compound: C[C@@H](O)[C@H](N)C(=O)N[C@@H](Cc1ccccc1)C(=O)N[C@@H](Cc1ccccc1)C(=O)N[C@@H](Cc1ccc(O)cc1)C(=O)NCC(=O)NCC(=O)N[C@@H](CO)C(=O)N[C@@H](CCCNC(=N)N)C(=O)NCC(=O)N[C@@H](CCCCN)C(=O)N[C@@H](CCCNC(=N)N)C(=O)N[C@@H](CC(N)=O)C(=O)N[C@@H](CC(N)=O)C(=O)N[C@@H](Cc1ccccc1)C(=O)N[C@@H](CCCCN)C(=O)N[C@H](C(=O)N[C@@H](CCC(=O)O)C(=O)N[C@@H](CCC(=O)O)C(=O)N[C@@H](Cc1ccc(O)cc1)C(=O)O)[C@@H](C)O [Angiopep-2]

Compound: CC(=O)O[C@H]1C(=O)[C@@]2(C)[C@H]([C@H](OC(=O)c3ccccc3)[C@]3(O)C[C@H](OC(=O)[C@H](O)[C@@H](NC(=O)c4ccccc4)c4ccccc4)C(C)=C1C3(C)C)[C@]1(OC(C)=O)CO[C@@H]1C[C@@H]2O [Taxol]
MTD [4]: 8 mg/kg | pIC50 ([5]; Homo sapiens, 72 h, read-out: IC50, proliferation of glioblastoma cells (U-87)): ~8.00 | pIC50 ([5]; Homo sapiens, read-out: IC50, effect on cell proliferation): 8.02 | IC50 ([5]; Homo sapiens, U-87 MG, Table 3B, read-out: IC50 (nM) Mean): 12.9 nM | Residual survival % Mean ([5]; U-87 MG): 40.35% | Residual survival % Mean [6]: 52.24% | IC50 ([6]; Homo sapiens, Table 3B): 62.9 nM | pIC50 [7]: 8.14 | pIC50 [8]: 7.76 | Tumor growth Δ ([9]; Day 0 to Day 11): 371 ± 58 mm^3 | T/C ([9]; Day 11): 62% | Tumor volume, Day 0 ([9]; baseline, equivalent of 10 mg/kg of Taxol): 112 ± 12 mm^3 | Tumor volume, Day 11 ([9]; equivalent of 10 mg/kg of Taxol, twice a week): 483 ± 63 mm^3 | pIC50 [10]: 6.86 | AUC 0-4 ([11]; Brain): 0.07 μg/g of tissue | AUC 0-4 ([11]; Eye): 0.57 μg/g of tissue | AUC 0-4 ([11]; Heart): 2.5 μg/g of tissue | AUC 0-4 ([11]; Kidney): 8.0 μg/g of tissue | AUC 0-4 ([11]; Liver): 22 μg/g of tissue | AUC 0-4 ([11]; Lung): 1.1 μg/g of tissue | pIC50 ([12]; Homo sapiens, NCI-H460, read-out: IC50, effect on cell proliferation): 8.03 | IC50 ([12]; Homo sapiens, NCI-H460, Table 3B, read-out: IC50 (nM) Mean): 6.61 nM | Residual survival % Mean ([12]; NCI-H460): 24.98% | Residual survival % Mean [13]: 45.62% | IC50 ([13]; Homo sapiens): 17.6 nM | P-gp substrate or not ([14]; MDCK-MDR1): are P-gp substrates | Residual survival % Mean [15]: 55.18% | IC50 ([15]; Homo sapiens, SK-HEP1): 8.84 nM | Residual survival % Mean [16]: 54.26% | IC50 ([16]; Homo sapiens): 13.5 nM | Effect on cell cycle [17]: induce a blockade of NCI-H460 cell in G2/M phase | pIC50 [18]: 8.44 | Platelets ([19]; 4-days post-treatment): 200 ×109 cells/L | Reticulocytes ([19]; 4-days post-treatment): 0.011 ×1012 cells/L | White Blood Cells ([19]; 4-days post-treatment): 4.3 ×109 cells/L | Platelets ([19]; 8-days post treatment): 340 ×109 cells/L | Reticulocytes ([19]; 8-days post treatment): 0.11 ×1012 cells/L | White Blood Cells ([19]; 8-days post treatment): 8.7 ×109 cells/L | Platelets ([19]; Pre-treatment): 250 ×109 cells/L | Reticulocytes ([19]; Pre-treatment): 0.031 ×1012 cells/L | White Blood Cells ([19]; Pre-treatment): 9.7 ×109 cells/L | Residual survival % Mean [20]: 48.82% | IC50 ([20]; Homo sapiens): 6.12 nM

P-gp substrate or not ([14]; MDCK-MDR1): are P-gp substrates
Compound: CC[C@]1(O)C[C@@H]2CN(CCc3c([nH]c4ccccc34)[C@@](C(=O)OC)(c3cc4c(cc3OC)N(C)[C@H]3[C@@](O)(C(=O)OC)[C@H](OC(C)=O)[C@]5(CC)C=CCN6CC[C@]43[C@@H]65)C2)C1 [vinblastine]

Compound: rhodamine
Increase in accumulation in the presence of CsA, x-fold of control without CsA ([14]; MDCK-MDR1, 1 hr 37° C., 10 μM cyclosporin A): 7.5 fold | P-gp substrate or not ([14]; MDCK-MDR1, with or without CsA): are P-gp substrates
